This passage reports EC50 results from patent US20240043404A1 (AbbVie Inc., priority 2009, published 2024).

For this assay, the system named is RS4;11 cells. The assay can be described thus: RS4;11 cell viability assay (CellTiter Glo).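 Note: acute lymphoblastic leukemia line RS4,11, EC50 derived from percentage of viable cells after treatment relative to untreated controls, cell killing taken as a measure of Bcl-2 inhibition.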 In kind it is cell-based, human. The conditions noted are these: Homo sapiens, RS4-11, 48 h, 50,000 cells per well, 10% human serum, 48 hours; read-out: RS4; 11 EC50 Values. Background: ATP-based viability assays read luminescence as a measure of living cells.
Protocol: The acute lymphoblastic leukemia (ALL) cell line RS4;11 was used as the primary human cell line to assess the cellular activity of Bcl-2 selective agents in vitro and their efficacy in vivo.
Cell cytotoxicity EC50 values were assessed using CellTiter Glo (Promega) according to the manufacturer's recommendations. The EC50 values were determined as a percentage of viable cells following treatment compared to the untreated control cells.
As to `O=C(NS(=O)(=O)c1cnc(OCC2(F)CCOCC2)c(Cl)c1)c1ccc(N2CCC(F)(Cc3ccccc3-c3ccc(Cl)cc3)CC2)cc1Oc1cnc2[nH]ccc2c1` [Example 272, 4-{4-[(4′-chlorobiphenyl-2-yl)methyl]-4-fluoropiperidin-1-yl}-N-({5-chloro-6-[(4-fluorotetrahydro-2H-pyran-4-yl)methoxy]pyridin-3-yl}sulfonyl)-2-(1H-pyrrolo[2,3-b]pyridin-5-yloxy)benzamide], the EC50 was found to be 840 nM.
To `CC(C)N1CCC2(CCC(c3ccc(Cl)cc3)=C(CN3CCN(c4ccc(C(=O)NS(=O)(=O)c5ccc(NCC6CCOCC6)c(C(F)(F)F)c5)c(Oc5cnc6[nH]ccc6c5)c4)CC3)C2)CC1` [Example 273, 4-(4-{[9-(4-chlorophenyl)-3-isopropyl-3-azaspiro[5.5]undec-8-en-8-yl]methyl}piperazin-1-yl)-2-(1H-pyrrolo[2,3-b]pyridin-5-yloxy)-N-({4-[(tetrahydro-2H-pyran-4-ylmethyl)amino]-3-(trifluoromethyl)phenyl}sulfonyl)benzamide] belongs 209 nM; to `CC1(C)CCC(CN2CCN(c3ccc(C(=O)NS(=O)(=O)c4cnc(O[C@@H]5CCN(C(CF)CF)C5)c(Cl)c4)c(Oc4cnc5[nH]ccc5c4)c3)CC2)=C(c2ccc(Cl)cc2)C1` [Example 274, N-[(5-chloro-6-{[(3R)-1-(1,3-difluoropropan-2-yl)pyrrolidin-3-yl]oxy}pyridin-3-yl)sulfonyl]-4-(4-{[2-(4-chlorophenyl)-4,4-dimethylcyclohex-1-en-1-yl]methyl}piperazin-1-yl)-2-(1H-pyrrolo[2,3-b]pyridin-5-yloxy)benzamide], 214 nM.
To `CC1(C)CCC(CN2CCN(c3ccc(C(=O)NS(=O)(=O)c4ccc(OCCOC5CCOC5)c([N+](=O)[O-])c4)c(Oc4cnc5[nH]ccc5c4)c3)CC2)=C(c2ccc(Cl)cc2)C1` (stereo not drawn) [Example 275, 4-(4-{[2-(4-chlorophenyl)-4,4-dimethylcyclohex-1-en-1-yl]methyl}piperazin-1-yl)-N-({3-nitro-4-[2-(tetrahydrofuran-3-yloxy)ethoxy]phenyl}sulfonyl)-2-(1H-pyrrolo[2,3-b]pyridin-5-yloxy)benzamide] belongs 143 nM.
To `CC1(C)CCC(CN2CCN(c3ccc(C(=O)NS(=O)(=O)c4ccc(NC[C@H]5CC[C@H](C#N)CC5)c([N+](=O)[O-])c4)c(Oc4cnc5[nH]ccc5c4)c3)CC2)=C(c2ccc(Cl)cc2)C1` [Example 276, 4-(4-{[2-(4-chlorophenyl)-4,4-dimethylcyclohex-1-en-1-yl]methyl}piperazin-1-yl)-N-[(4-{[(trans-4-cyanocyclohexyl)methyl]amino}-3-nitrophenyl)sulfonyl]-2-(1H-pyrrolo[2,3-b]pyridin-5-yloxy)benzamide] belongs 3.5 nM; to `CC1(C)CCC(CN2CCN(c3ccc(C(=O)NS(=O)(=O)c4cnc(OCC5(F)CCN(C6COC6)CC5)c(Cl)c4)c(Oc4cnc5[nH]ccc5c4)c3)CC2)=C(c2ccc(Cl)cc2)C1` [Example 277, N-[(5-chloro-6-{[4-fluoro-1-(oxetan-3-yl)piperidin-4-yl]methoxy}pyridin-3-yl)sulfonyl]-4-(4-{[2-(4-chlorophenyl)-4,4-dimethylcyclohex-1-en-1-yl]methyl}piperazin-1-yl)-2-(1H-pyrrolo[2,3-b]pyridin-5-yloxy)benzamide], 8.18 nM; to `CC1(C)CCC(CN2CCN(c3ccc(C(=O)NS(=O)(=O)c4cnc(OCCC5CCOCC5)c(C#N)c4)c(Oc4cnc5[nH]ccc5c4)c3)CC2)=C(c2ccc(Cl)cc2)C1` [Example 278, 4-(4-{[2-(4-chlorophenyl)-4,4-dimethylcyclohex-1-en-1-yl]methyl}piperazin-1-yl)-N-({5-cyano-6-[2-(tetrahydro-2H-pyran-4-yl)ethoxy]pyridin-3-yl}sulfonyl)-2-(1H-pyrrolo[2,3-b]pyridin-5-yloxy)benzamide], 794 nM.
On to `CC1(C)CCC(CN2CCN(c3ccc(C(=O)NS(=O)(=O)c4ccc(OCc5ccoc5)c([N+](=O)[O-])c4)c(Oc4cnc5[nH]ccc5c4)c3)CC2)=C(c2ccc(Cl)cc2)C1` [Example 279, 4-(4-{[2-(4-chlorophenyl)-4,4-dimethylcyclohex-1-en-1-yl]methyl}piperazin-1-yl)-N-{[4-(3-furylmethoxy)-3-nitrophenyl]sulfonyl}-2-(1H-pyrrolo[2,3-b]pyridin-5-yloxy)benzamide], for which the EC50 is 225 nM.
Next, `CC1(C)CCC(CN2CCN(c3ccc(C(=O)NS(=O)(=O)c4cnc(OC[C@@H]5CCN(C(CF)CF)C5)c(Cl)c4)c(Oc4cnc5[nH]ccc5c4)c3)CC2)=C(c2ccc(Cl)cc2)C1` [Example 280, N-[(5-chloro-6-{[(3R)-1-(1,3-difluoropropan-2-yl)pyrrolidin-3-yl]methoxy}pyridin-3-yl)sulfonyl]-4-(4-{[2-(4-chlorophenyl)-4,4-dimethylcyclohex-1-en-1-yl]methyl}piperazin-1-yl)-2-(1H-pyrrolo[2,3-b]pyridin-5-yloxy)benzamide]: 459 nM; `CC1(C)CCC(CN2CCN(c3ccc(C(=O)NS(=O)(=O)c4cnc(OC[C@@H]5CCN(CC(F)F)C5)c(Cl)c4)c(Oc4cnc5[nH]ccc5c4)c3)CC2)=C(c2ccc(Cl)cc2)C1` [Example 281, N-[(5-chloro-6-{[(3R)-1-(2,2-difluoroethyl)pyrrolidin-3-yl]methoxy}pyridin-3-yl)sulfonyl]-4-(4-{[2-(4-chlorophenyl)-4,4-dimethylcyclohex-1-en-1-yl]methyl}piperazin-1-yl)-2-(1H-pyrrolo[2,3-b]pyridin-5-yloxy)benzamide]: 654 nM.
Consider `CC1(C)CCC(CN2CCN(c3ccc(C(=O)NS(=O)(=O)c4cnc(OCC5(F)CCN(C(CF)CF)CC5)c(Cl)c4)c(Oc4cnc5[nH]ccc5c4)c3)CC2)=C(c2ccc(Cl)cc2)C1` [Example 282, N-[(5-chloro-6-{[1-(1,3-difluoropropan-2-yl)-4-fluoropiperidin-4-yl]methoxy}pyridin-3-yl)sulfonyl]-4-(4-{[2-(4-chlorophenyl)-4,4-dimethylcyclohex-1-en-1-yl]methyl}piperazin-1-yl)-2-(1H-pyrrolo[2,3-b]pyridin-5-yloxy)benzamide], for which the EC50 was 32.2 nM.
Next, `CN1CCC(F)(COc2ccc(S(=O)(=O)NC(=O)c3ccc(N4CCN(CC5=C(c6ccc(Cl)cc6)CC(C)(C)CC5)CC4)cc3Oc3cnc4[nH]ccc4c3)cc2Cl)CC1` [Example 283, N-({3-chloro-4-[(4-fluoro-1-methylpiperidin-4-yl)methoxy]phenyl}sulfonyl)-4-(4-{[2-(4-chlorophenyl)-4,4-dimethylcyclohex-1-en-1-yl]methyl}piperazin-1-yl)-2-(1H-pyrrolo[2,3-b]pyridin-5-yloxy)benzamide]: 13.1 nM; `CC1(C)CCC(CN2CCN(c3ccc(C(=O)NS(=O)(=O)c4ccc(OCC5CCOCC5)c(C#N)c4)c(Oc4cnc5[nH]ccc5c4)c3)CC2)=C(c2ccc(Cl)cc2)C1` [Example 284, 4-(4-{[2-(4-chlorophenyl)-4,4-dimethylcyclohex-1-en-1-yl]methyl}piperazin-1-yl)-N-{[3-cyano-4-(tetrahydro-2H-pyran-4-ylmethoxy)phenyl]sulfonyl}-2-(1H-pyrrolo[2,3-b]pyridin-5-yloxy)benzamide]: 162 nM; `CC1(C)CCC(CN2CCN(c3ccc(C(=O)NS(=O)(=O)c4cnc(OCC5(F)CCN(CC(F)F)CC5)c(Cl)c4)c(Oc4cnc5[nH]ccc5c4)c3)CC2)=C(c2ccc(Cl)cc2)C1` [Example 285, N-[(5-chloro-6-{[1-(2,2-difluoroethyl)-4-fluoropiperidin-4-yl]methoxy}pyridin-3-yl)sulfonyl]-4-(4-{[2-(4-chlorophenyl)-4,4-dimethylcyclohex-1-en-1-yl]methyl}piperazin-1-yl)-2-(1H-pyrrolo[2,3-b]pyridin-5-yloxy)benzamide]: 57.4 nM.
To `CC1(C)CCC(CN2CCN(c3ccc(C(=O)NS(=O)(=O)c4ccc(OCC5(F)CCOCC5)c(Cl)c4)c(Oc4cnc5[nH]ccc5c4)c3)CC2)=C(c2ccc(Cl)cc2)C1` [Example 286, N-({3-chloro-4-[(4-fluorotetrahydro-2H-pyran-4-yl)methoxy]phenyl}sulfonyl)-4-(4-{[2-(4-chlorophenyl)-4,4-dimethylcyclohex-1-en-1-yl]methyl}piperazin-1-yl)-2-(1H-pyrrolo[2,3-b]pyridin-5-yloxy)benzamide] belongs 34.5 nM; to `CC1(C)CCC(CN2CCN(c3ccc(C(=O)NS(=O)(=O)c4cnc(OCC5CCC(F)(F)CC5)c(Cl)c4)c(Oc4cnc5[nH]ccc5c4)c3)CC2)=C(c2ccc(Cl)cc2)C1` [Example 287, N-({5-chloro-6-[(4,4-difluorocyclohexyl)methoxy]pyridin-3-yl}sulfonyl)-4-(4-{[2-(4-chlorophenyl)-4,4-dimethylcyclohex-1-en-1-yl]methyl}piperazin-1-yl)-2-(1H-pyrrolo[2,3-b]pyridin-5-yloxy)benzamide], 593 nM; to `CC1(C)CCC(CN2CCN(c3ccc(C(=O)NS(=O)(=O)c4cnc(OCC5(F)CCN(C(CF)CF)CC5)c(C(F)(F)F)c4)c(Oc4cnc5[nH]ccc5c4)c3)CC2)=C(c2ccc(Cl)cc2)C1` [Example 288, 4-(4-{[2-(4-chlorophenyl)-4,4-dimethylcyclohex-1-en-1-yl]methyl}piperazin-1-yl)-N-{[6-{[1-(1,3-difluoropropan-2-yl)-4-fluoropiperidin-4-yl]methoxy}-5-(trifluoromethyl)pyridin-3-yl]sulfonyl}-2-(1H-pyrrolo[2,3-b]pyridin-5-yloxy)benzamide], 390 nM.
Next, `CC1(C)CCC(CN2CCN(c3ccc(C(=O)NS(=O)(=O)c4cnc(OCCC5CCCO5)c(Cl)c4)c(Oc4cnc5[nH]ccc5c4)c3)CC2)=C(c2ccc(Cl)cc2)C1` (stereo not drawn) [Example 289, 4-(4-{[2-(4-chlorophenyl)-4,4-dimethylcyclohex-1-en-1-yl]methyl}piperazin-1-yl)-N-({5-chloro-6-[2-(tetrahydrofuran-2-yl)ethoxy]pyridin-3-yl}sulfonyl)-2-(1H-pyrrolo[2,3-b]pyridin-5-yloxy)benzamide]: 669 nM.
